Where a name gives a salt, the structure may show the parent alone.
Legend:
Type in all cases: physicochemical
[1] = Approximate kinetic solubility in organic solvents; conditions: kinetic from dmso stock
From the text: A summary of the approximate kinetic solubility of Compound I HCl Form I in organic solvents, simulated biological fluids, and common pharmaceutical co-solvents is provided in Tables 8-10, respectively.

[2] = Thermodynamic pH-solubility profile; conditions: 7 days of shaking, about 37° C. water bath
From the text: A thermodynamic pH-solubility profile of Compound I HCl Form I in various buffer or non-buffer solutions is further provided in FIG. 61. FIG. 61 additionally includes the thermodynamic pH-solubility profile of Compound I free base. It is of note that no data is shown in the profile of Compound I free base below a pH of about 2.0, as Compound I free base converted to Compound I HCl Form I below a pH of about 2.0. Similarly, no data is shown in the profile of Compound I HCl Form I above a pH of about 3.0, as Compound I HCl Form I converted to Compound I free base above a pH of about 3.0.

Low humidity testing = experiment: Low humidity testing
Experimental: Low Humidity testing: Compound I HCl salt Form I was placed under N2 and checked by in situ XRPD at 20 min and 60 minutes. […] HCl salt Form I was placed under N2 bleeding for ˜60 min and TGA and DSC were measured. […] (peak temperature).

[3] = Solid-state storage stability at controlled temperature/RH; conditions: for Form change / HPLC purity on storage: 2 weeks, initial HPLC purity 99.3%
Experimental: Storage at 25° C./60% RH and at 40° C./75% RH: Compound I HCl Form I was stored at 25° C./60% RH and at 40° C./75% RH. Initial HPLC purity was 99.3%.

[4] = Kinetic solubility in SGF; conditions: listed as HC1 salt Form I
Experimental: (§1) Kinetic solubility testing was conducted as follows: About 40-55 mg material was weighed into a 5-mL EP pipe. 4 mL of water/bio-relevant media (SGF, FaSSIF, or FeSSIF) was added into the corresponding sample pipe (drug loading: ˜10 mg/mL calculated as freebase). The pipes were capped tightly and the material was verified to be in contact with the media. The sample vials were placed on a roller and start rolling at 37° C. (rate: 25 r/min). Samples were taken at 1, 2, 4, 24 h. For each time point, 1.0 mL of suspension was transferred into a 2-mL centrifuge tube and the samples were centrifuged. The supernatant was filtered via 0.45 μm PTFE membrane and solubility and pH were measured. An XRPD test on residual solids was conducted.

[5] = Kinetic solubility in FeSSIF
Experimental: as §1

[6] = Slurry maturations in various solvents (form reproducibility/stability); conditions: acetonitrile, EtOAc, ethanol, IPA; cycling about 25 to about 50° C., about 4 days
Experimental: A series of slurry maturations in various solvents was performed to further analyze the form reproducibility/stability of the esylate, mesylate, HCl, and sulfate salts/co-crystals of Compound I. The solvents chosen were acetonitrile, EtOAc, ethanol, and IPA. The input materials were the salts/co-crystals of Compound I formed via the second scale up process. About 20 mg of each sample was charged to reflux tubes and heated with temperature cycling between about 25 and about 50° C. for about 4 days. The resulting materials were isolated by filtration and dried in vacuo at about 40° C. The results of the slurry maturations for the resulting HCl and mesylate salts/co-crystals are presented in subsections (a)-(d) below. The data for the resulting esylate and sulfate salts/co-crystals of Compound have been omitted due to notable form variation.

[7] = Dynamic vapor sorption (DVS) analysis
From the text: In view of the DVS analysis, compound I HCl Form I may be characterized as a monohydrate.

[8] = Kinetic solubility in water; conditions: 37° C., listed as HC1 salt Form I; for pH of supernatant: water (native pH 7.6); for Kinetic solubility: water
Experimental: as §1

[9] = XRPD form evaluation of materials recovered after solubility analysis; conditions: aqueous solubility analysis, second scale up material
Experimental: The solubility of the salts/co-crystals of Compound I prepared from the second scale up process was analyzed. The materials recovered after the solubility analysis were evaluated by XRPD to observe any form changes.

[10] = Polymorphic stability at elevated temperatures
[11] = Solution stability in buffer solutions; conditions: buffer solutions pH about 1.2 to about 10.0, about 60° C., 2 days
Experimental: The stability of Compound I HCl Form I in buffer solutions over a pH range of about 1.2 to about 10.0 was also evaluated. These solutions were stored at about 60° C., and assayed for pH and % remaining at 2 days.

solubility kinetic ([1]; Acetone, MeCN, IPA, EtOAc, THF, Dioxane, DCM, organic solvent or mixture): < 100 µg/mL
solubility kinetic ([1]; DMF, PEG300, organic solvent or mixture): 1000 to 10000 µg/mL
solubility kinetic ([1]; DMSO, organic solvent or mixture): 10000 to 33300 µg/mL
solubility kinetic ([1]; Methanol, Ethanol, PG, Safflower Seed Oil, Tween 80, organic solvent or mixture): 100 to 1000 µg/mL
pH range in which Compound I HCl Form I converted to Compound I free base [2]: > 3.0
Form under N2 by in situ XRPD (Low humidity testing; N2 bleeding for 20 min, 10.2% RH): A new form was observed
Form change on storage (XRPD, TGA and DSC) ([3]; powder, about 6 months, about 40° C./75% RH, open dish): did not exhibit any form change
Solubility (mg/mL) 1 h ([4]; SGF, 37° C., 1 h, drug loading ~10 mg/mL as freebase): 0.041 mg/mL
Solubility (mg/mL) 2 h ([4]; SGF, 37° C., 2 h): 0.039 mg/mL
Solubility (mg/mL) 4 h ([4]; SGF, 37° C., 4 h): 0.036 mg/mL
Solubility (mg/mL) 24 h ([4]; SGF, 37° C., 24 h): 0.035 mg/mL
Final Form ([4]; XRPD of residual solids, SGF, 1 h, 2 h, 4 h, 24 h): HC1 salt Form I
pH 1 h ([4]; supernatant, SGF (native pH 1.8), 1 h): 1.9
pH 2 h ([4]; supernatant, SGF (native pH 1.8), 2 h): 1.9
pH 4 h ([4]; supernatant, SGF (native pH 1.8), 4 h): 2.0
pH 24 h ([4]; supernatant, SGF (native pH 1.8), 24 h): 2.0
Kinetic solubility in FeSSIF (qualitative) ([5]; 37° C.): favorable kinetic solubility
Solubility (mg/mL) 1 h ([5]; 37° C., 1 h, drug loading ~10 mg/mL as freebase, listed as HC1 salt Form I): 0.049 mg/mL
Solubility (mg/mL) 2 h ([5]; 37° C., 2 h, listed as HC1 salt Form I): 0.031 mg/mL
Solubility (mg/mL) 4 h ([5]; 37° C., 4 h, listed as HC1 salt Form I): 0.010 mg/mL
Solubility (mg/mL) 24 h ([5]; 37° C., 24 h, listed as HC1 salt Form I): 0.0072 mg/mL
Final Form 2 h, 4 h, 24 h ([5]; XRPD of residual solids, 2 h, 4 h, 24 h): Freebase Form II
pH 1 h ([5]; supernatant, 1 h, listed as HC1 salt Form I): 4.9
pH 2 h ([5]; supernatant, 2 h, listed as HC1 salt Form I): 4.7
pH 4 h ([5]; supernatant, 4 h, listed as HC1 salt Form I): 4.7
pH 24 h ([5]; supernatant, 24 h, listed as HC1 salt Form I): 4.5
Form after slurry maturation (XRPD) [6]: does not experience any form change
De-hydration and re-hydration behaviour (DVS) [7]: reversible
RH at which complete moisture re-uptake is observed (DVS) [7]: about 20 % RH
DVS weight ([7]; below about 10% RH): up to 3.5%
pH of supernatant ([8]; 1 h): 3.1
pH of supernatant ([8]; 2 h): 2.9
pH of supernatant ([8]; 4 h): 3.0
pH of supernatant ([8]; 24 h): 2.9
Kinetic solubility ([8]; 1 h): 220 µg/mL
Kinetic solubility ([8]; 2 h): 250 µg/mL
Kinetic solubility ([8]; 4 h): 180 µg/mL
Kinetic solubility ([8]; 24 h): 180 µg/mL
Form change on solubility analysis (XRPD post vs pre) [9]: no form change
Crystalline form after dry-heating (XRPD, DSC, proton NMR) ([10]; about 50° C., about 72 hours): did not change the crystalline form
pH at which most stable in solution (% remaining) [11]: about 4.5
SMILES: CCS(=O)(=O)N1CCN(c2ccc(Nc3ncc(C(N)=O)c(NC4CC4)n3)cc2)CC1 [Compound I HCl Form I, 4-(cyclopropylamino)-2-(4-(4-(ethylsulfonyl)piperazin-1-yl)phenylamino)pyrimidine-5-carboxamide]
Form after re-exposure to ambient conditions (Low humidity testing; after N2 bleeding): converted back to HCl salt Form I quickly
Form change / HPLC purity on storage ([3]; 25° C./60% RH): No form change or decrease in purity by HPLC
Form change / HPLC purity on storage ([3]; 40° C./75% RH): No form change or decrease in purity by HPLC
DVS moisture uptake ([7]; between about 40% and about 90% RH): minimal moisture uptake with no hysteresis
Polymorphism after re-hydrating post-TGA material (DSC) ([10]; 3 days at about 60% RH): no gross effect upon the polymorphism, but amorphous content did appear
Crystalline form after heating inside TGA ([10]; up to about 120° C. until approximately 3% weight loss): slight loss of crystallinity, but without a new form appearing

Source: US11713309B2, “Solid forms of Cerdulatinib” (Alexion Pharmaceuticals, Inc., priority 2018, dated 2023)
